How the values were obtained:
[1] = tested on: children with moderate to severe ADHD; assay: Example 1: 4-week placebo-controlled study of modafinil in children with ADHD; type: in vivo, human; details: for ADHD symptoms, primary outcome measure (teacher rated ADHD Rating Scale-IV): vs placebo
Procedure: A group of 248 children (average age: 9 years, average weight: 35.5 kilograms) were studied to determine the effect of modafinil on ADHD.
After a 1 week washout period, children with moderate to severe ADHD received 4 weeks of treatment with placebo or modafinil in split morning/midday dosages of 100/200 mg, 200/100 mg, a single 300 mg dose, and 200/200 mg (400 mg total). Randomization called for equal distribution of the children by weight, except for the 200/200 mg dose group, which contained only children having a weight greater than or equal to 30 kg. The primary efficacy measure was the teacher rated ADHD Rating Scale-IV.

ADHD patients = assay: Example 2: 2-week fixed-dose study of 340 mg and 425 mg in children with ADHD; type: in vivo, human; details: 340 mg (<30 kg) or 425 mg (>=30 kg) single dose per day, 2 weeks, baseline score 46.3
Procedure: Safety and efficacy of the fixed doses of 340-mg and 425-mg were evaluated following a 2-week dosing period (1-week of titration and 1-week at steady state). The 340-mg dose was administered to children weighing <30 kg, and the 425-mg dose was administered to children weighing ≧30 kg.
The 24 children enrolled in this study were predominately male (17M:7F) and predominately white (13W:9B:2Other). The average age (9.0 yrs), weight (32.9 kg) and height (133.7 cm) were similar to those seen in previous ADHD trials in children. The children <30 and ≧30 kg were approximately equaled divided. The average Attention Deficit Hyperactivity Disorder Rating Scale (ADHD-RS) total score at baseline was 46.3.

[2] = human blood plasma concentration curve of modafinil; type: in vivo
Procedure: FIG. 1 represents a human blood plasma concentration curve of modafinil after an initial dose of 100 mg of modafinil followed 4 hours later by a 200 mg dose of modafinil.
FIG. 2 represents a human blood plasma concentration curve of modafinil after an initial dose of 200 mg of modafinil followed 4 hours later by a 100 mg dose of modafinil.
FIG. 3 represents a human blood plasma concentration curve of modafinil after a single dose of 300 mg of modafinil.
FIG. 4 represents a human blood plasma concentration curve of modafinil after a single dose of 100 mg of modafinil.

NC(=O)C[S+]([O-])C(c1ccccc1)c1ccccc1 (centres unmarked) [modafinil, 2-[(diphenylmethyl)sulfinyl]acetamide]
adverse event profile ([1]; 400 mg of modafinil (200/200 mg) vs the other doses): higher adverse event profile than the other doses | safety and tolerability ([1]; children, 4 weeks of treatment, 300 to 400 mg total daily): safe and generally well tolerated | ADHD symptoms, primary outcome measure (teacher rated ADHD Rating Scale-IV) ([1]; children, single 300 mg once daily dose, 4 weeks of treatment): significantly improved ADHD symptoms | ADHD symptoms, primary outcome measure (teacher rated ADHD Rating Scale-IV) ([1]; children, split morning/midday dose 200/100 mg, 4 weeks of treatment): significantly improved ADHD symptoms | improvement of ADHD-RS total score from baseline (ADHD patients): ~70% | blood concentrations of modafinil, amount less than predicted ([2]; single dose of 300 mg vs extrapolation of 100 mg unit dose data, FIG. 3): 20-30% | time post administration at which the blood level of modafinil begins to decrease ([2]; single dose of 300 mg, FIG. 3): about 2 hours | time post administration at which the blood plasma concentration of modafinil begins to decrease ([2]; split dose 100 mg then 200 mg or 200 mg then 100 mg 4 hours later, FIGS. 1 and 2): about two
